Consider 3 compounds from US20040167061A1, “Substantially homogeneous bio-affecting material having a pre-determined ratio of bioaffecting component to cell targeting component, the method for making such a material and the method of its use” (priority 2003, published 2004).

The test system of one series is NADH-oxidase. The note with it: plasma membrane redox enzyme; cited from earlier work.
A further series has as its system human mesothelioma cells. The note with it: nude mice with (drug-resistant) human mesothelioma cells; compared to animals treated only with doxorubicin; cited from earlier work.
In series [1] the test system is leukemic cells in peripheral blood. The note with it: cited from earlier work.
For another series, the system named is advanced ovarian cancer. Description: unpublished randomized clinical study in advanced ovarian cancer. It is filed as in vivo, human. The conditions noted are these: equivalent to 1 mg doxorubicin per day on days 15 through 19 of monthly cycles; time between diagnosis and randomization 18 months. As for the experimental part: There is an unpublished clinical study of 23 patients with advanced ovarian cancer who were randomized into test (12 patients) and placebo (11 patients) groups. The test group received transferrin-doxorubicin conjugates equivalent to 1 mg doxorubicin per day on days 15 through 19 of monthly treatment cycles.

Series [2] relates to metastatic lesions from a sarcoma. The conditions noted are these: treatment begun August 2000.
Series [3] relates to multi-drug resistant cells. The conditions noted are these: cited from earlier work.

`COc1cccc2c1C(=O)c1c(O)c3c(c(O)c1C2=O)C[C@@](O)(C(=O)CO)C[C@@H]3O[C@H]1C[C@H](N)[C@H](O)[C@H](C)O1` [doxorubicin]: in the series on NADH-oxidase, the “inhibition of NADH-oxidase” value is given as “efficient inhibitor”.

With “glutaraldehyde-prepared transferrin-doxorubicin conjugates”, the “survival (prolonging life)” value in the series on human mesothelioma cells is “significantly prolonging life”. Also, the “decrease of number of leukemic cells in peripheral blood” value in series [1] (7 patients, 1 mg/day iv for 5 days, within 10-days following therapy) is 86%. Further, in series [1] (bone marrow biopsies before and after treatment), the extension of disease result is “no extension of disease”. Further, the toxic effects entry in series [1] (seven acute leukemia patients, 1 mg/day intravenously for 5 days) was “no toxic effects”.

Turning to transferrin-doxorubicin conjugates, in the series on advanced ovarian cancer, the “Cox regression estimates of survival rates, test versus placebo” value was “significant difference”. In addition, in series [2] (by January), the “radiological evidence of tumor” value is “no radiological evidence of tumor”. Further, the “metastatic lesions in the lungs” value in series [2] (by November) is “substantially cleared of metastatic lesions”. Also, in the series with NADH-oxidase, the “inhibition of NADH-oxidase” value is recorded as “inhibit”. Also, the “killing of multi-drug resistant cells” value in series [3] was “effectively kill”.
